For orientation: IC50 means the point on the concentration scale where inhibition reaches its midpoint. As usually defined, the inhibition is the change of the read-out against control, counted positive when it falls.

Structures are written as SMILES. “And” between values parts separate entries of the source, which are not always exact repeats. Equal entries are not always repeated.

Assay [1] has as its target T1, recombinant CREBBP bromodomain (Homo sapiens, UniProt Q92793).
T1 construct: recombinant CREBBP bromodomain obtained from BPS Bioscience, USA; purchased BPS Bioscience, USA
In words: CBP TR-FRET displacement assay. The class given is binding. The note with it: for IC50: dose-response, read-out: IC50 (group A, B, C). An outline of the steps:
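CREBBP bromodomain (50 nM) preincubated 30 min at room temperature with 500 nM biotinylated ligand in HEPES pH 7.5 buffer with TCEP, then 60 min with compound. Eu-anti-His/APC-streptavidin TR-FRET 665/615 nm ratio read; IC50 from sigmoidal dose-response fit.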
Background: Time-resolved FRET reads energy transfer from a long-lived donor to a nearby acceptor.

Assay [2] addresses T2, recombinant P300 bromodomain (Homo sapiens, UniProt Q09472).
T2 construct: recombinant P300 bromodomain obtained from BPS Bioscience, USA; purchased BPS Bioscience, USA
T2 sequence (Q09472 1049-1156 limits assumed): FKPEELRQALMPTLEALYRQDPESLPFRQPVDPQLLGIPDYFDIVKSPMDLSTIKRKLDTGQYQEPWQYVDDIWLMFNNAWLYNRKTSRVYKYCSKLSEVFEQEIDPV
Kind of assay: P300 TR-FRET displacement assay. Format: binding. The note with it: dose-response, read-out: IC50 (group A, B, C). As to the method: The potency of compounds to inhibit P300 enzyme was tested in a TR-FRET displacement assay using recombinant P300 bromodomain obtained from BPS Bioscience, USA. The assay buffer was 50 mM HEPES (pH 7.5), 50 mM NaCl, 0.008% Brij 35, 0.01% BSA, 1 mM TCEP. 50 nM of P300 & 500 nM of Biotinylated ligand was incubated at room temperature for 30 minutes, the reaction was initiated by adding the pre-incubated enzyme ligand mixture to the test compounds. After 60 min incubation, the reaction was stopped by the addition of stop mix containing 1 nM of LANCE Europium-anti-6xHis antibody (Perkin Elmer, USA) and 40 nM of Sure Light Allophycocyanin-Streptavidin (Perkin Elmer, USA). Fluorescence emission of the samples at 665 and 615 nm were measured at an excitation of 340 nm and their ratio was plotted against the compound concentrations to generate dose-response curve.
Selected compounds of the present invention were screened in the above-mentioned assay procedures and IC50 values were determined by fitting the dose-response data to sigmoidal curve fitting equation using Graph pad prism software V7.

T1 sequence (Q92793 1085-1192 limits assumed): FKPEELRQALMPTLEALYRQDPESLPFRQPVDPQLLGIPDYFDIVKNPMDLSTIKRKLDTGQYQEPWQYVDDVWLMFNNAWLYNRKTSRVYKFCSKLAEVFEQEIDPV

On to `COc1cc(N2CCc3cc(-c4cnn(C)c4)c(C(F)F)cc32)c2cc(C)c(=O)n(C)c2c1` [Example 195, 5-(6-(Difluoromethyl)-5-(1-methyl-1H-pyrazol-4-yl)indolin-1-yl)-7-methoxy-1,3-dimethylquinolin-2(1H)-one], for which the IC50 is under 50 nM in assay [1] and 25 to 50 nM in assay [2].
With `Cc1cc2c(N3CCCc4cc(-c5cnn(C)c5)c(C(F)F)cc43)nc(N3C[C@@H](O)[C@H](O)C3)cc2n(C)c1=O` [Example 215], the IC50 in assay [1] was under 50 nM; in assay [2], under 25 nM.
For the compound `Cc1cc2c(N3CCN(C)c4cc(-c5cnn(C)c5)c(C#N)cc43)cc(OCC(=O)OC(C)(C)C)cc2n(C)c1=O` [Example 3, Tert-butyl 2-((5-(7-cyano-4-methyl-6-(1-methyl-1H-pyrazol-4-yl)-3,4-dihydroquinoxalin-1(2H)-yl)-1,3-dimethyl-2-oxo-1,2-dihydroquinolin-7-yl)oxy)acetate], the results for the IC50 in assay [1] and in assay [2] were over 10 nM and over 50000 nM, respectively.
As for `Cc1cc2c(N3CCN(C)c4cc(-c5cnn(C)c5)c(C#N)cc43)cccc2[nH]c1=O` [Example 2, 1-methyl-7-(1-methyl-1H-pyrazol-4-yl)-4-(3-methyl-2-oxo-1,2-dihydroquinolin-5-yl)-1,2,3,4-tetrahydroquinoxaline-6-carbonitrile], the results for the IC50 in assay [1] and in assay [2] were under 50 nM and under 25 nM, respectively.
For the compound `Cc1cc2c(N3CCCc4cc(-c5cnn(C)c5)c(C(F)F)cc43)nc(N3CC[C@H](O)C3)cc2n(C)c1=O` [Example 210], the 50% inhibitory concentration (IC50) is under 50 nM in assay [1] and 25 to 50 nM in assay [2].
Take `Cc1cc2c(N3CCN(C)c4cc(-c5cnn(C)c5)c(F)cc43)cc(N3CCOCC3)cc2n(C)c1=O` [Example 48]: the results for the IC50 in assay [1] and in assay [2] were under 50 nM and under 25 nM, respectively.
Turning to `Cc1cc2c(N3CCN(C)c4cc(-c5cnn(C)c5)ncc43)cc(N3CCOCC3)cc2n(C)c1=O` [Example 134], the IC50 in assay [1] was < 50 nM and 51 to 100 nM; in assay [2] it was over 50000 nM.
For the compound `Cc1ccc2[nH]c(=O)c(C)cc2c1N1CCN(C)c2cc(-c3cnn(C)c3)c(C#N)cc21` [Example 38], the inhibition at 10 µM in assay [1] (compound at 10 μM) was 98%. Moreover, the figures for the IC50 in assay [1] and in assay [2] were under 50 nM and over 50000 nM, respectively.
For `COC(=O)c1cc2c(cc1C#N)N(c1cc(OC)cc3c1cc(C)c(=O)n3C)CCN2C` [Example 67, methyl 7-cyano-1-(7-methoxy-1,3-dimethyl-2-oxo-1,2-dihydroquinolin-5-yl)-4-methyl-1,2,3,4-tetrahydroquinoxaline-6-carboxylate], the half-maximal inhibitory concentration (IC50) in assay [1] was under 50 nM; in assay [2] it was 25 to 50 nM.
With `Cc1cc2c(N3CCN(C)c4cc(-c5cnn(C)c5)c(C#N)cc43)cc(OC3COC3)cc2n(C)c1=O` [Example 40], the half-maximal inhibitory concentration (IC50) in assay [1] was under 50 nM; in assay [2], 25 to 50 nM.
For `Cc1cc2c(N3CCN(C)c4cc(-c5cnn(C)c5)c(C#N)cc43)cc(OCCN(C)C)cc2n(C)c1=O` [Example 39] the same measures were under 50 nM and under 25 nM.
`COc1cc(N2CCN(C)c3cc(C4=CCN(C)CC4)c(C#N)cc32)c2cc(C)c(=O)n(C)c2c1` [Example 17]: the IC50 is under 50 nM in assay [1] and over 50000 nM in assay [2].
Consider `Cc1cc2c(N3CCN(C)c4cc(-c5cnn(C)c5)ncc43)cc(N3C[C@@H]4C[C@H]3CO4)cc2n(C)c1=O` [Example 146, 7-((1S,4S)-2-oxa-5-azabicyclo[2.2.1]heptan-5-yl)-1,3-dimethyl-5-(1-methyl-7-(1-methyl-1H-pyrazol-4-yl)-2,3-dihydropyrido[3,4-b]pyrazin-4(1H)-yl)quinolin-2(1H)-one], for which the IC50 in assay [1] is under 50 nM; in assay [2] it was over 50000 nM.
For `COc1cc(N2CCN(C)c3cc(-c4ccnn4C)c(C#N)cc32)c2cc(C)c(=O)n(C)c2c1` [Example 9] the same measures were under 50 nM and under 25 nM.
